Measurements: the supplement of paper PMC10949913

How the values were obtained:
Test in all cases: area under concentration-response curve (viability) (AUC (a.u.)); higher = less active
Settings in all cases: 48 h
NCI-H295R = tested on: NCI-H295R
Procedure, shortened: (§1)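 In 1,536-well plates, 500–1,000 cells/well of three adrenocortical carcinoma cell lines in 5 µL medium received 23 nL of each library compound across 11 concentrations. At 48 h, CellTiter-Glo was incubated for 15 minutes at room temperature and luminescence measured. Per-plate normalisation used vehicle and empty-well controls, and only inhibitory or non-responding curve classes were kept when fitting concentration-response curves for AC50 and area under the curve.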

CU-ACC2 = tested on: CU-ACC2
Procedure, shortened: as §1

CU-ACC1 = tested on: CU-ACC1
Procedure, shortened: as §1

SMILES | area under concentration-response curve (NCI-H295R) | area under concentration-response curve (CU-ACC2) | area under concentration-response curve (CU-ACC1)
CC#CCn1c(N2CCC[C@@H](N)C2)nc2c1c(=O)n(Cc1nc(C)c3ccccc3n1)c(=O)n2C | 561 | 606 | 503
CCC(CC)CC1(C(=O)Nc2ccccc2SC(=O)C(C)C)CCCCC1 | 537 | 593 | 519
Nc1nc(Cl)nc2c1ncn2[C@H]1C[C@H](O)[C@@H](CO)O1 | 537 | 601 | 558
COc1ccc(COc2cc3oc(=O)c4cc(C(C)O)ccc4c3cc2OC)cc1 (stereo unspecified) | 466 | 506 | 356
Nc1ncnc2c1ncn2[C@@H]1O[C@H](CO)[C@@H](O)[C@@H]1O | 515 | 582 | 496
CN(C)/N=N/c1nc[nH]c1C(N)=O | 481 | 547 | 514
CO[C@H]1/C=C/O[C@@]2(C)Oc3c(C)c(O)c4c(O)c(c5c(nc6cc(C)ccn65)c4c3C2=O)NC(=O)/C(C)=C\C=C\[C@H](C)[C@H](O)[C@@H](C)[C@@H](O)[C@@H](C)[C@H](OC(C)=O)[C@@H]1C | 529 | 557 | 475
CC(C)(Oc1ccc(C2CC2(Cl)Cl)cc1)C(=O)O (stereo unspecified) | 526 | 483 | 502
COCCNCc1ccc(-c2cc3nccc(Oc4ccc(NC(=O)C5(C(=O)Nc6ccc(F)cc6)CC5)cc4F)c3s2)nc1 | 374 | 414 | 302
C[C@]12CC[C@@H]3c4ccc(O)cc4C[C@@H](CCCCCCCCC[S+]([O-])CCCC(F)(F)C(F)(F)F)[C@H]3[C@@H]1CC[C@@H]2O (stereo partly specified) | 530 | 564 | 391
CCOC(=O)N1c2ccc(C(F)(F)F)cc2[C@@H](N(Cc2cc(C(F)(F)F)cc(C(F)(F)F)c2)C(=O)OC)C[C@H]1CC | 533 | 636 | 502
CC(C)(OCc1nn(Cc2ccccc2)c2ccccc12)C(=O)O | 491 | 460 | 416
N#Cc1ccc(C(c2ccc(C#N)cc2)n2cncn2)cc1 | 516 | 428 | 488
COc1nc(-c2ccc3c(c2)OCO3)n(-c2ccc(NC(=O)CSc3ccccc3)cc2)n1 | 573 | 611 | 408
CC1CCN(c2cc(N3CCN(C)CC3)ccc2NC(=O)c2cc(C#N)c[nH]2)CC1 | 544 | 600 | 542
NC(=O)c1cnc(-c2ccc(C3(N)CCC3)cc2)c(-c2ccccc2)c1 | 554 | 648 | 537
CCC(=O)N1CCOc2c(cc(-c3cc(OC)cc(OC)c3)cc2C(=O)N[C@H]2CCCN(C)C2)C1 | 463 | 550 | 500
Cc1ccc(NC(=O)Nc2nnc(Sc3ncnc4cc(OCCCN5CCOCC5)ccc34)s2)cc1 | 511 | 583 | 521
CCn1nc(C2CCN(C(=O)CCO)CC2)nc1-c1cnc(N)c(-c2nnc(C(C)(C)C)o2)n1 | 507 | 504 | 387
Clc1ccc2c(N3CCN(CCCN4CCN(c5ccnc6cc(Cl)ccc56)CC4)CC3)ccnc2c1 | 451 | 450 | 433
O=C(O)Cn1nnc(-c2cc(N3CCC(Oc4cc(F)ccc4Br)CC3)no2)n1 | 515 | 594 | 491
O=C(c1ccc(N[S+](=O)([O-])c2cccc3cccnc23)cc1)N1CCN(CC2CC2)CC1 | 527 | 486 | 485
OC[C@H]1O[C@H](C[C@@H]1O)N2/C=C(C(=O)NC2=O)/C(F)(F)F | 583 | 650 | 538
Cc1cccc(-c2n[nH]cc2-c2ccc3ncccc3n2)n1 | 524 | 567 | 468

SMILES | area under concentration-response curve (NCI-H295R) | area under concentration-response curve (CU-ACC2) | area under concentration-response curve (CU-ACC1)
COc1ccc2[nH]cc(CCNC(C)=O)c2c1 | 578 | 668 | 592
Nc1nc(F)nc2c1ncn2[C@@H]1O[C@H](COP(=O)(O)O)[C@@H](O)[C@@H]1O | 514 | 521 | 527
Cc1c(Cn2c(C)nc3c(C(=O)O)cc(N4CCOCC4)cc32)cccc1C(F)(F)F | 519 | 524 | 444
NCCCCCC(=O)O | 540 | 585 | 509
CN(C)[C@H]\1[C@@H]2[C@@H](O)[C@@H]\3C(=C)C4=C(C(=CC=C4)O)C(=O)C3=C(\O)[C@@]2(O)C(=O)\C(=C1O)C(N)=O | 540 | 473 | 493
CCCCCCCCCCCCCCCCCCCCCCO | 525 | 562 | 538
Cc1cc(C)cc(Oc2ccc(CNC(=O)[C@H](C)N)cc2C)c1 | 509 | 559 | 478
Nc1nc(Cl)nc2c1ncn2[C@@H]1O[C@H](CO)[C@@H](O)[C@@H]1F | 537 | 559 | 468
CCOc1ccccc1N/N=C1/C(=O)N(c2nc(-c3ccccc3)cs2)N=C1C | 570 | 639 | 569
ClC1=CC=C2N/C3=N/C(=O)CN3CC2=C1Cl | 542 | 626 | 519
Cc1csc(NC(=O)c2sc3nc4c(c(C(F)(F)F)c3c2N)CCC4)n1 | 472 | 494 | 441
CNC[C@H](O)c1ccc(O)c(O)c1 | 592 | 608 | 530
C\C1=C(/C)C(=O)\C(=C(\C)C1=O)C(CCCCCC(O)=O)C2=CC=CC=C2 (stereo unspecified) | 550 | 613 | 545
C[C@H]1CN(C[C@H](Cc2ccccc2)C(=O)NCC(=O)O)CC[C@@]1(C)c1cccc(O)c1 | 577 | 662 | 569
CCCCCCCCCCCCCCCC(=O)O[C@@H]1[C@@H](O)[C@@H](O)[C@@H]([C@H](NC(=O)[C@@H]2C[C@@H](CCC)CN2C)[C@H](C)Cl)O[C@@H]1SC.Cl | 513 | 583 | 489
NCCc1c[nH]cn1 | 548 | 605 | 416
OC1=CC=C(C=C1)\C2=C\OC3=C(C(=CC(=C3)O)O)C2=O | 555 | 499 | 435
Cc1ccnc(N[S+](=O)([O-])c2ccc(NC(=O)Nc3ccc([S+](=O)([O-])Nc4nccc(C)n4)cc3)cc2)n1 | 537 | 566 | 499
CN1C(=O)CC[S+](=O)([O-])C1c1ccc(Cl)cc1 (stereo unspecified) | 572 | 534 | 553
C1CN\2C[C@@H](\N=C2S1)C3=CC=CC=C3 | 575 | 626 | 506
C=C1C(=O)OC(CCCCCCCC)C1C(=O)O (stereo unspecified) | 437 | 457 | 409
N[C@@H](CC(=O)N1CCn2c(nnc2C(F)(F)F)C1)Cc1cc(F)c(F)cc1F | 555 | 597 | 554
CC(C)(C)OC(=O)N[C@H]1CCCCC/C=C\[C@@H]2C[C@@]2(C(=O)N[S+](=O)([O-])C2CC2)NC(=O)[C@@H]2C[C@@H](OC(=O)N3Cc4cccc(F)c4C3)CN2C1=O | 472 | 503 | 414
